pIC50: −log10 of the molar value.

One test concerns U251 (glioma) cells. In words: Anti-cancer screen, growth inhibition (MTT). The settings on record: Homo sapiens, U-251 cells, 48 hours of incubation. It counts as cell-based. On the procedure:
(§1) Experimental drugs were screened for anti-cancer activity in three cell fines using five concentrations for each compound.
(§2) Following 24-hour incubation, test compounds were added to the 96 well plates. Each plate contains one of the above cell lines and the following samples in triplicate: five different dilutions (0.01, 0.1, 1, 10 and 100 μM) of four test compounds, appropriate dilutions of a cytotoxic standard and growth medium (untreated) wells. […] SAHA was used as standard drug in these experiments.
(§3) For T0 measurement, 24 hours after seeding the cells, 20 μL of 3-(4.5-dimethyl-2-thiazolyl)-2,5-diphenyl-2H-tetrazolium (MTT) solution per well was added to the ‘T0’ plate and incubated for 3 hours at 37° C. in a CO2 incubator. The plate containing cells and test compounds was treated similarly after 48 hours of incubation. After 3 hours of MTT addition, well contents were aspirated carefully followed by addition of 150 μL DMSO per well. Plates were agitated to ensure dissolution of the formazan crystals in DMSO and absorbance was read at 570 nm (A570).

Another test relates to HCT 116 (colon) cells. The test can be described thus: Anti-cancer screen, growth inhibition (MTT). The format is cell-based. The settings on record: Homo sapiens, HCT-116 cells, 48 hours of incubation. On the procedure:
as §1, §2, §3

The test system of the next test is NCI-H460 (lung) cells. The test can be described thus: Anti-cancer screen, growth inhibition (MTT). The format is cell-based. The conditions noted are these: Homo sapiens, 48 hours of incubation. On the procedure: as §1, §2, §3
Test [1] concerns the target T1, HDAC (Mouse Liver Extract).
T1 construct: Mouse liver enzyme (10 mg/ml) was diluted 1:6 with HDAC buffer
The test can be described thus: HDAC inhibition assay using Boc-Lys(Ac)-AMC substrate, mouse liver enzyme.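 On pIC50: IC50 for inhibition of HDAC activity in mouse liver extract.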 It counts as biochemical. Here is the method:
Histone Deacetylase (HDAC) Inhibition Assay using Boc-Lys (Ac)-AMC Substrate: Inhibition of HDAC has been implicated to modulate transcription and to induce apoptosis or differentiation in cancer cells. The fluorometric assay provides a fast and fluorescence based method that eliminates radioactivity, extractions or chromatography, as used in traditional assays. The assay is based on two steps. First, the HDAC fluorometric substrate, which comprises an acetylated lysine side chain, is incubated with a sample containing HDAC activity (Mouse Liver Extract). Deacetylation of the substrate sensitizes the substrate, in the second step; treatment with the Trypsin stop solution produces a fluorophore that can be easily analyzed using fluorescence plate reader.
Assay was done in 96-well black microplate and total volume of the assay was 100 μL. Mouse liver enzyme (10 mg/ml) was diluted 1:6 with HDAC buffer. Enzyme cocktail was made of 10 μL of diluted enzyme and 30 μL of HDAC buffer. 40 μl of enzyme cocktail followed by 10 μL of test compound (1 μM and 10 μM) or buffer (control) was added to each well. The plate was pre-incubated at 37° C. for 5 minutes. The HDAC reaction was started by adding 50 μl of HDAC substrate Boc-Lys (Ac)-AMC (Bachem AG, Switzerland). The plate was incubated at 37° C. for 30 minutes. […] Measuring the fluorescence at excitation wavelength of 360 nm and emission wavelength of 460 nm monitored the release of AMC. Buffer alone and substrate alone served as blank.

Turning to `O=C(/C=C/c1ccc(/C=C(/C(=O)Nc2ccccc2)c2cccc(OC3CCCC3)c2)cc1)NO` [Example 44, 2-(3-Cyclopentyloxyphenyl)-3-(4-((1E)-3-(hydroxyamino)-3-oxoprop-1-en-1-yl)phenyl)-N-phenylacrylamide], in the test with U251 (glioma) cells, it took 5 µM to inhibit growth by half (GI50). In addition, in the test on HCT 116 (colon) cells, halving of growth (GI50) required 7 µM. Further, in the test with NCI-H460 (lung) cells, the concentration for 50% growth inhibition (GI50) worked out at 6.3 µM. In addition, in test [1], the pIC50 was 6.43, the “HDAC Inhibition % (1 μM)” value worked out at 77.4% and the “HDAC Inhibition % (10 μM)” value was determined as 95.9%.

For the molecule `O=C(/C=C/c1ccc(/C=C(/C(=O)Nc2ccccc2)c2ccc(OCC3CC3)cc2)cc1)NO` [Example 46, 2-(4-Cyclopropylmethoxyphenyl)-3-(4-((1E)-3-(hydroxyamino)-3-oxoprop-1-en-1-yl)phenyl)-N-phenylacrylamide], the GI50 with U251 (glioma) cells was found to be 2.8 µM. This molecule gave a 50% growth inhibitory concentration (GI50) in the test with HCT 116 (colon) cells of 1.6 µM. This molecule came in with a 50% growth inhibitory concentration (GI50) with NCI-H460 (lung) cells of 0.8 µM. In test [1], the pIC50 is 7.72, the “HDAC Inhibition % (1 μM)” value turned out to be 73.5% and the “HDAC Inhibition % (10 μM)” value came out at 98.5%.

In the case of `COc1ccc(/C=C(/C(=O)NC2CC2)c2cccc(/C=C/C(=O)NO)c2)cc1OC` [Example 47, N-Cyclopropyl-3-(3,4-dimethoxyphenyl)-2-(3-((1E)-3-(hydroxyamino)-3-oxoprop-1-en-1-yl)phenyl)acrylamide], the values for the GI50 with U251 (glioma) cells, with HCT 116 (colon) cells and with NCI-H460 (lung) cells were 20 µM, 15 µM and 14 µM, respectively. In test [1], the “HDAC Inhibition % (1 μM)” value is given as 89.3%. The “HDAC Inhibition % (10 μM)” value in test [1] stood at 97.1%.

As for `CN(C)C(=O)/C(=C/c1ccc(/C=C/C(=O)Nc2ccccc2N)cc1)c1ccc(F)cc1` [Example 60, 3-(4-((1E)-3-(2-Aminophenylamino)-3-oxoprop-1-en-1-yl)phenyl)-2-(4-fluorophenyl)-N,N-dimethylacrylamide], the figures for the GI50 in the test on U251 (glioma) cells, in the test with HCT 116 (colon) cells and in the test with NCI-H460 (lung) cells were 22 µM, 23 µM and 29 µM, respectively. Further, in test [1], the “HDAC Inhibition % (1 μM)” value is recorded as 28.3%. Besides, the “HDAC Inhibition % (10 μM)” value in test [1] worked out at 34.2%.

On to `Nc1ccccc1NC(=O)/C=C/c1ccc(/C=C(/C(=O)NC2CC2)c2ccccc2Cl)cc1` [Example 63, N-Cyclopropyl-3-(4-((1E)-3-(2-aminophenylamino)-3-oxoprop-1-en-1-yl}phenyl)-2-(2-chlorophenyl)acrylamide], for which the 50% growth inhibitory concentration (GI50) with U251 (glioma) cells was > 100 µM; with HCT 116 (colon) cells, 30 µM; in the test with NCI-H460 (lung) cells, 32 µM. In addition, the “HDAC Inhibition % (1 μM)” value in test [1] is given as 27.5%. Further, the “HDAC Inhibition % (10 μM)” value in test [1] is on record as 49.2%.

In the case of `Nc1ccccc1NC(=O)/C=C/c1ccc(/C=C(/C(=O)NC2CC2)c2ccc3c(c2)OCO3)cc1` [Example 64, N-Cyclopropyl-3-(4-((1E)-3-(2-aminophenylamino)-3-oxoprop-1-en-1-yl}phenyl)-2-[benzodioxol-5-yl]-acrylamide], the GI50 in the test with U251 (glioma) cells was 78 µM; in the test with HCT 116 (colon) cells it was 44 µM; in the test on NCI-H460 (lung) cells, 52 µM. For the same molecule, in test [1], the “HDAC Inhibition % (1 μM)” value was 22.6%. The “HDAC Inhibition % (10 μM)” value in test [1] was 48.8%.

Regarding `Nc1ccccc1NC(=O)/C=C/c1ccc(/C=C(/C(=O)NC2CC2)c2ccccc2F)cc1` [Example 65, N-Cyclopropyl-3-(4-((1E)-3-(2-aminophenylamino)-3-oxoprop-1-en-1-yl}phenyl)-2-(2-fluorophenyl)acrylamide], the 50% growth inhibitory concentration (GI50) with U251 (glioma) cells is 82 µM; with HCT 116 (colon) cells, > 100 µM; with NCI-H460 (lung) cells it was 80 µM. In addition, in test [1], the “HDAC Inhibition % (1 μM)” value stood at 31.2%. Also, the “HDAC Inhibition % (10 μM)” value in test [1] stood at 56.2%.

`Nc1ccccc1NC(=O)/C=C/c1ccc(/C=C(/C(=O)NC2CC2)c2cccc(Cl)c2)cc1` [Example 66, N-Cyclopropyl-3-(4-((1E)-3-(2-aminophenylamino)-3-oxoprop-1-en-1-yl}phenyl)-2-(3-chlorophenyl)acrylamide]: the GI50 in the test on U251 (glioma) cells, with HCT 116 (colon) cells and in the test with NCI-H460 (lung) cells was > 100 µM in each case. Also, the “HDAC Inhibition % (1 μM)” value in test [1] is on record as 41.6%. The “HDAC Inhibition % (10 μM)” value in test [1] was 72.4%.

Regarding `Cc1ccc(/C(=C\c2ccc(/C=C/C(=O)Nc3ccccc3N)cc2)C(=O)NC2CC2)cc1` [Example 67, (E)-N-Cyclopropyl-3-(4-((1E)-3-(2-aminophenylamino)-3-oxoprop-1-en-1-yl}phenyl)-2-(4-methylphenyl)acrylamide], the GI50 in the test on U251 (glioma) cells was > 100 µM; in the test with HCT 116 (colon) cells, 36 µM; in the test on NCI-H460 (lung) cells, 40 µM. The “HDAC Inhibition % (1 μM)” value in test [1] is 31.5%. Moreover, the “HDAC Inhibition % (10 μM)” value in test [1] is listed as 59.5%.

As to `COc1cccc(/C(=C\c2ccc(/C=C/C(=O)Nc3ccccc3N)cc2)C(=O)NC2CC2)c1` [Example 69, N-Cyclopropyl-3-(4-((1E)-3-(2-aminophenylamino)-3-oxoprop-1-en-1-yl}phenyl)-2-(3-methoxyphenyl)acrylamide], the GI50 was > 100 µM with U251 (glioma) cells, 94 µM in the test with HCT 116 (colon) cells and 74 µM in the test with NCI-H460 (lung) cells. Moreover, in test [1], the “HDAC Inhibition % (1 μM)” value came out at 25.5%. Further, the “HDAC Inhibition % (10 μM)” value in test [1] came out at 54.4%.

`Nc1ccccc1NC(=O)/C=C/c1ccc(/C=C(/C(=O)NC2CC2)c2ccccc2)cc1` [Example 70, N-Cyclopropyl-3-(4-((1E)-3-(2-aminophenylamino)-3-oxoprop-1-en-1-yl}phenyl)-2-phenylacrylamide]: the GI50 in the test with U251 (glioma) cells, with HCT 116 (colon) cells and with NCI-H460 (lung) cells was > 100 µM throughout. Besides, the “HDAC Inhibition % (1 μM)” value in test [1] amounted to 34.0%. The “HDAC Inhibition % (10 μM)” value in test [1] turned out to be 36.0%.

In the case of `Nc1ccccc1NC(=O)/C=C/c1ccc(/C=C(/C(=O)NC2CC2)c2cccs2)cc1` [Example 71, N-Cyclopropyl-3-(4-((1E)-3-(2-aminophenylamino)-3-oxoprop-1-en-1-yl}phenyl)-2-(thiophen-2-yl)acrylamide], the GI50 was 0.6 µM in the test with U251 (glioma) cells, > 100 µM in the test with HCT 116 (colon) cells and > 100 µM in the test on NCI-H460 (lung) cells. In test [1], the “HDAC Inhibition % (1 μM)” value is reported as 28.0%. For the same molecule, the “HDAC Inhibition % (10 μM)” value in test [1] came to 37.0%.

Consider `Nc1ccccc1NC(=O)/C=C/c1ccc(/C=C(/C(=O)N2CCOCC2)c2ccccc2F)cc1` [Example 72], for which the 50% growth inhibitory concentration (GI50) with U251 (glioma) cells was determined as 20 µM; with HCT 116 (colon) cells, 20 µM; with NCI-H460 (lung) cells it was 50 µM. In addition, the “HDAC Inhibition % (1 μM)” value in test [1] is listed as 24.8%. Further, in test [1], the “HDAC Inhibition % (10 μM)” value turned out to be 52.0%.

As to `Nc1ccccc1NC(=O)/C=C/c1ccc(/C=C(/C(=O)NC2CC2)c2ccc(F)c(F)c2)cc1` [Example 73, N-Cyclopropyl-3-(4-((1E)-3-(2-aminophenylamino)-3-oxoprop-1-en-1-yl}phenyl)-2-(3,4-difluorophenyl)acrylamide], the GI50 is > 100 µM in the test on U251 (glioma) cells, 10.1 µM in the test with HCT 116 (colon) cells and > 100 µM with NCI-H460 (lung) cells. The “HDAC Inhibition % (1 μM)” value in test [1] was 12.0%. For the same molecule, in test [1], the “HDAC Inhibition % (10 μM)” value came out at 21.8%.

Turning to `COc1ccc(/C(=C\c2ccc(/C=C/C(=O)Nc3ccccc3N)cc2)C(=O)NC2CC2)cc1OC` [Example 74, N-Cyclopropyl-3-(4-((1E)-3-(2-aminophenylamino)-3-oxoprop-1-en-1-yl}phenyl)-2-(3,4-dimethoxyphenyl)acrylamide], the results for the GI50 in the test with U251 (glioma) cells, in the test with HCT 116 (colon) cells and with NCI-H460 (lung) cells were 90 µM, 100 µM and > 100 µM, respectively. In addition, the “HDAC Inhibition % (1 μM)” value in test [1] stood at 12.3%. The “HDAC Inhibition % (10 μM)” value in test [1] stood at 12.1%.

As a reminder, the GI50 is the concentration giving 50% growth inhibition. Broadly, the pIC50 is the IC50 on a negative log10 scale, so that one unit is a factor of ten. Low values mean a large IC50, high ones a small IC50.

Source of the values: patent publication US8450525B2, “Histone deacetylase inhibitors” (Orchid Chemicals & Pharmaceuticals Limited, priority 2007, dated 2013).
